Tests used:
M-cells = assay: proliferative activity of M-cells by [3H]thymidine incorporation; format: cell-based, rat; conditions: in vitro
Description: Male Donryu rats (4 to 10 weeks of age) were anesthetized by intraperitoneal injection of Nembutal at the dose of 5 mg/0.1 ml/100 g of body weight, and blood was collected by cutting the carotid artery. Subsequently, following disinfection using a hibiten solution, the abdomens of the animals were opened in a clean bench, and the mesenteric membranes were removed one by one and washed with PBS (−), and were then recovered in another 15 ml of PBS (−). The same amount of 0.5% trypsin in PBS (−) was added, and the preparation was agitated for 20 minutes at 37° C. Subsequently, 5 ml of a 10% CS/MEM was added, to stop the trypsin reaction. Then, the preparation was subjected to pipetting by means of a Komagome Pipette, and filtrated using a metal mesh. The filtrate was centrifuged for 10 minutes at 1500 rpm (440×g), 4° C., and was washed with PBS (−). The collected cells were inoculated into a 6 cm dish with an attached grid (2 mm square) at the density of 1.5 to 2.0×10^5 cells. The medium of 10% CS/MEM was used, and the medium was changed on the day following collection and every other day thereafter. […] Subsequently, the proliferation activity was measured as above-mentioned in (3).

[1] = serum lipid peroxide levels (TBARS) in hepatoma-bearing rats; format: in vivo, rat; conditions: mean ± SEM of 11 rats
Description: Male Donryu rats of four weeks old were purchased from NRC Haruna, Gumma, Japan, and were preliminarily fed for 6 days in quintuple cages in a room with a controlled environment with light period of 8:00 to 20:00, room temperature of 22±1° C., and relative humidity of 60±5%. For the first 3 days, the animals were fed ad libitum with a stock pellet diet (CE-2; CLEA Japan, Tokyo), and for the next 3 days, they were fed a basal diet containing 20% milk casein (20C) (Table 1) ad libitum together with tap water in a glass container. Following the completion of this preparatory raising, the rats were divided into three groups (11 animals per group) with equal average body weights of the respective groups were equal, and 1.0×10^7 of AH109A cells suspended in PBS (−) were transplanted in the back of all the rats. From the time immediately after transplantation, in the respective experimental groups, the animals were fed the experimental diets shown in Table 2. During the experimental period, the body weight, food intake and solid tumor size (sum of length, width and height) were measured everyday. […] LPO levels were determined by measuring thiobarbituric acid-reactive substances (TBARS) by the Yagi fluorescence method using a lipid peroxide test Wako (Wako Pure Chemical Industries).

## O=C1OCC(Cc2cccc(O)c2)C1Cc1cccc(O)c1 (stereo not drawn) [Enterolactone, enterolactone]
M-cells
  proliferation of M-cells (normal cells): inhibit the proliferation of M-cells in a dose-dependent manner
[1]; diet 10 ppm
  Serum TBARS: 7.31 ± 0.37 nmol/mL
[1]; diet 100 ppm
  Serum TBARS: 6.87 ± 0.51 nmol/mL

From US20070117864A1, “Composition for preventing and treating hepatoma” (Tokyo University of Agr. & Tech. TLO Co., Ltd., priority 2003, published 2007)
